According to patent US20110306778A1, “CRYSTAL OF SPIROKETAL DERIVATIVES AND PROCESS FOR PREPARATION OF SPIROKETAL DERIVATIVES” (priority 2008, published 2011):

Legend:
SGLT2 = biological target: T1, SGLT2 (Homo sapiens, UniProt P31639); details: statement of Patent Document 1 (WO 2006/080421 A1); cited from earlier work
T1 sequence (P31639 1-672): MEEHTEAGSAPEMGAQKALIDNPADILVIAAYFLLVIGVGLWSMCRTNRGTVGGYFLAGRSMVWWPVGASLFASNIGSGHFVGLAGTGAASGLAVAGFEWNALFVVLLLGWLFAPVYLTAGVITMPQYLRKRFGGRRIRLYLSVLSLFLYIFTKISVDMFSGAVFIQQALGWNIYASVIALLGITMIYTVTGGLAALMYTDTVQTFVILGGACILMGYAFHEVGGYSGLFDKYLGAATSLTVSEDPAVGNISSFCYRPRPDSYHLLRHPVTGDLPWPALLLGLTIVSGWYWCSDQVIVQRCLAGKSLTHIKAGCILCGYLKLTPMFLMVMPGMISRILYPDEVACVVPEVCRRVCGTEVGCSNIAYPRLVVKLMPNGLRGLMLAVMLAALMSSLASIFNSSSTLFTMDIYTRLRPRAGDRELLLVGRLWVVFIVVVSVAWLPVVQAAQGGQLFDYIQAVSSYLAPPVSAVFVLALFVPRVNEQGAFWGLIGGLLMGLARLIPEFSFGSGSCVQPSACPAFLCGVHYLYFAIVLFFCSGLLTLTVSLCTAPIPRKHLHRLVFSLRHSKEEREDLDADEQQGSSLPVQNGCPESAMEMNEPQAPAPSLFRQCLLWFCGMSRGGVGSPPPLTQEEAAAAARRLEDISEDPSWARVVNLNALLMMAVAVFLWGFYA

[1] = Storage stability test (total amount of impurities by HPLC after storage in thermostatic chambers); format: physicochemical; details: for Course of the total amounts of impurities during storage: both at 25° C. and 40° C.
Method: A storage stability test was carried out for monohydrate crystal and an amorphous form of the compound of Formula (XI). The monohydrate crystal of the compound of Formula (XI) was prepared according to the procedure of Example 1, Step 7. The amorphous form of the compound of Formula (XI) was obtained by the following procedure. The monohydrate crystal of the compound (15 g) was melted by heating on hot-stage, and allowed to be cooled to room temperature in a humidity-controlled desiccator (25° C./dry). The resulting solid was grinded in mortar to give a sample used as an amorphous form. The samples were stored in thermostatic chambers at 25° C. or 40° C., and the purity each of the samples was observed after 1 month, 3 months and 6 months.
The purity was determined in the following procedure. A portion each of the samples was weighed precisely (ca. 6 mg) and dissolved in a mixture of water and methanol (1:1) to be 10 mL accurately. The resulting solutions were used as sample solutions, and a portion (10 μL) each of the sample solutions was subjected to HPLC analysis. A total amount of impurities were calculated according to the following formula.
Measurement Condition of HPLC
Device: 2695 Separations Module (manufactured by Waters), 2487 Dual k Absorbance Detector (manufactured by Waters) or 996 Photodiode Array Detector (manufactured by Waters)
Column: YMC-Pack ODS-AM AM-302-3, 4.6 mm I.D.×15 cm, particle size 3 μm (manufactured by YMC)
Mobile phase: Eluent A=methanol, Eluent B=water
Gradient operation: Eluent A: 55% (15 min), Eluent A: 55% to 100% (10 min), 100% (5 min)
Detection wavelength: 220 nm
Sample cooler temperature: 5° C.
Period for measuring peak area: 30 minutes after injection
(§1) A storage stability test was carried out for co-crystal of the compound of Formula (XI) with sodium acetate according to the procedure of Test Example 2. The co-crystal of the compound of Formula (XI) with sodium acetate was prepared according to the procedure of Example 5. The samples were stored in thermostatic chambers at 25° C. or 40° C., and the purity each of the samples was observed after 1 month and 3 months. The measurement results were compared with those for the amorphous form obtained in Test Example 2.
as §1, with “potassium” for “sodium”, “6.” for “5.”

Row | Structure (SMILES) | Inhibitory activity against SGLT2 (SGLT2) | Course of the total amounts of impurities during storage [1] | Total amount of impurities (%) ([1]; storage at 25° C., 0 month) | Total amount of impurities (%) ([1]; storage at 25° C., 3 month) | Total amount of impurities (%) ([1]; storage at 25° C., 6 month) | Total amount of impurities (%) ([1]; storage at 40° C., 0 month) | Total amount of impurities (%) ([1]; storage at 40° C., 1 month) | Total amount of impurities (%) ([1]; storage at 40° C., 3 month) | Total amount of impurities (%) ([1]; storage at 40° C., 6 month)
1 | CCc1ccc(Cc2ccc3c(c2)[C@]2(OC3)O[C@H](CO)[C@@H](O)[C@H](O)[C@H]2O)cc1 [Formula (B)] | excellent inhibitory activity |  |  |  |  |  |  |  | 
2 | CCc1ccc(Cc2ccc3c(c2)[C@]2(OC3)O[C@H](CO)[C@@H](O)[C@H](O)[C@H]2O)cc1 [Amorphous form, 1,1-anhydro-1-C-[5-(4-ethylphenyl)methyl-2-(hydroxymethyl)phenyl]-β-D-glucopyranose] |  | increased time-dependently | 0.35 | 0.66 | 0.87 | 0.35 | 0.62 | 0.92 | 1.46
3 | CCc1ccc(Cc2ccc3c(c2)[C@]2(OC3)O[C@H](CO)[C@@H](O)[C@H](O)[C@H]2O)cc1 [Monohydrate crystal, 1,1-anhydro-1-C-[5-(4-ethylphenyl)methyl-2-(hydroxymethyl)phenyl]-β-D-glucopyranose] |  | maintained nearly constant for 6 months | 0.30 | 0.29 | 0.32 | 0.30 | 0.32 | 0.31 | 0.36
4 | CCc1ccc(Cc2ccc3c(c2)[C@]2(OC3)O[C@H](CO)[C@@H](O)[C@H](O)[C@H]2O)cc1 [Co-crystal with potassium acetate, 1,1-anhydro-1-C-[5-(4-ethylphenyl)methyl-2-(hydroxymethyl)phenyl]-β-D-glucopyranose] |  | maintained nearly constant for 3 months | 0.08 | 0.08 |  | 0.08 | 0.08 | 0.08 | 
5 | CCc1ccc(Cc2ccc3c(c2)[C@]2(OC3)O[C@H](CO)[C@@H](O)[C@H](O)[C@H]2O)cc1 [Co-crystal with sodium acetate, 1,1-anhydro-1-C-[5-(4-ethylphenyl)methyl-2-(hydroxymethyl)phenyl]-β-D-glucopyranose] |  | maintained nearly constant for 3 months | 0.07 | 0.07 |  | 0.07 | 0.07 | 0.08 | 
